# Data from US10004701B2, “Methods and compositions for treating infection” (UNIVERSITY OF ROCHESTER, priority 2012, dated 2018).
# Like-named read-outs stand apart in the source and are kept apart here.
# How the values were obtained:
# Assay in all cases: AK assay 384-well format, Prestwick library screening
# [1] = test system: E. faecium; format: cell-based, Enterococcus faecium; conditions: 50 μM final drug concentration; for fold induction at 50 µM: Enterococcus faecium, 3 h
# [2] = test system: S. aureus strain USA300-0114; format: cell-based, Staphylococcus aureus; conditions: 50 μM final drug concentration; for fold induction at 50 µM: Staphylococcus aureus, USA300, 3 h
# [3] = test system: E. cloacae; format: cell-based, Enterobacter cloacae; conditions: 50 μM final drug concentration; for fold induction at 50 µM: Enterobacter cloacae, 3 h
# [4] = test system: A. baumannii strain 98-37-09; format: cell-based, Acinetobacter baumannii; conditions: 50 μM final drug concentration; for fold induction at 50 µM: Acinetobacter baumannii, 983709, 3 h
# [5] = test system: K. pneumoniae; format: cell-based, Klebsiella pneumoniae; conditions: 50 μM final drug concentration; for fold induction at 50 µM: Klebsiella pneumoniae, 3 h
# [6] = test system: E. coli; format: cell-based, Escherichia coli; conditions: 50 μM final drug concentration; for fold induction at 50 µM: Escherichia coli, 3 h
# [7] = test system: P. aeruginosa; format: cell-based, Pseudomonas aeruginosa; conditions: 50 μM final drug concentration; for fold induction at 50 µM: Pseudomonas aeruginosa, 3 h
# [8] = planktonic, cutoff for positive 3-fold increase
# [9] = planktonic, cutoff for positive 3-fold increase, read-out: AK-based Prestwick Library Screening Results, E. faecium (fold increase in extracellular AK activity)
# [10] = planktonic, cutoff for positive 3-fold increase, read-out: AK-based Prestwick Library Screening Results, S. aureus (fold increase in extracellular AK activity)
# [11] = planktonic, cutoff for positive 3-fold increase, read-out: AK-based Prestwick Library Screening Results, E. cloacae (fold increase in extracellular AK activity)
# [12] = planktonic, cutoff for positive 3-fold increase, read-out: AK-based Prestwick Library Screening Results, A. baumannii (fold increase in extracellular AK activity)
# [13] = planktonic, cutoff for positive 3-fold increase, read-out: AK-based Prestwick Library Screening Results, K. pneumoniae (fold increase in extracellular AK activity)
# [14] = planktonic, cutoff for positive 3-fold increase, read-out: AK-based Prestwick Library Screening Results, E. coli (fold increase in extracellular AK activity)
# [15] = planktonic, cutoff for positive 3-fold increase, read-out: AK-based Prestwick Library Screening Results, P. aeruginosa (fold increase in extracellular AK activity)
# [16] = 384-well format, cutoff for positive-scoring molecules 3-fold increase, read-out: AK-based Prestwick Library Screening Results, E. faecium (increase in extracellular AK activity)
# [17] = 384-well format, cutoff for positive-scoring molecules 3-fold increase, read-out: AK-based Prestwick Library Screening Results, S. aureus (increase in extracellular AK activity)
# [18] = 384-well format, cutoff for positive-scoring molecules 3-fold increase, read-out: AK-based Prestwick Library Screening Results, E. cloacae (increase in extracellular AK activity)
# [19] = 384-well format, cutoff for positive-scoring molecules 3-fold increase, read-out: AK-based Prestwick Library Screening Results, A. baumannii (increase in extracellular AK activity)
# [20] = 384-well format, cutoff for positive-scoring molecules 3-fold increase, read-out: AK-based Prestwick Library Screening Results, K. pneumoniae (increase in extracellular AK activity)
# [21] = 384-well format, cutoff for positive-scoring molecules 3-fold increase, read-out: AK-based Prestwick Library Screening Results, E. coli (increase in extracellular AK activity)
# [22] = 384-well format, cutoff for positive-scoring molecules 3-fold increase, read-out: AK-based Prestwick Library Screening Results, P. aeruginosa (increase in extracellular AK activity)
# [23] = planktonic E. faecium, 384-well, cutoff for positive-scoring molecules 3-fold increase, read-out: AK-based Prestwick Library Screening Results: E. faecium (increase in extracellular AK activity)
# [24] = planktonic S. aureus, 384-well, cutoff for positive-scoring molecules 3-fold increase, read-out: AK-based Prestwick Library Screening Results: S. aureus (increase in extracellular AK activity)
# [25] = planktonic E. cloacae, 384-well, cutoff for positive-scoring molecules 3-fold increase, read-out: AK-based Prestwick Library Screening Results: E. cloacae (increase in extracellular AK activity)
# [26] = planktonic A. baumannii, 384-well, cutoff for positive-scoring molecules 3-fold increase, read-out: AK-based Prestwick Library Screening Results: A. baumannii (increase in extracellular AK activity)
# [27] = planktonic K. pneumoniae, 384-well, cutoff for positive-scoring molecules 3-fold increase, read-out: AK-based Prestwick Library Screening Results: K. pneumoniae (increase in extracellular AK activity)
# [28] = planktonic P. aeruginosa, 384-well, cutoff for positive-scoring molecules 3-fold increase, read-out: AK-based Prestwick Library Screening Results: P. aeruginosa (increase in extracellular AK activity)
molecule,measurement,setting,value
Eburnamonine (−),"AK-based Prestwick Library Screening Results, E. faecium (fold increase in extracellular AK activity)",[1]; [8],1.1
same,"AK-based Prestwick Library Screening Results, S. aureus (fold increase in extracellular AK activity)",[2]; [8],1.0
same,"AK-based Prestwick Library Screening Results, E. cloacae (fold increase in extracellular AK activity)",[3]; [8],1.4
same,"AK-based Prestwick Library Screening Results, A. baumannii (fold increase in extracellular AK activity)",[4]; [8],1.1
same,"AK-based Prestwick Library Screening Results, K. pneumoniae (fold increase in extracellular AK activity)",[5]; [8],1.0
same,"AK-based Prestwick Library Screening Results, E. coli (fold increase in extracellular AK activity)",[6]; [8],1.2
same,"AK-based Prestwick Library Screening Results, P. aeruginosa (fold increase in extracellular AK activity)",[7]; [8],1.3
C[C@H]1[C@H]2CC[C@H]3[C@@H]4CC=C5C[C@@H](N(C)C)CC[C@]5(C)[C@H]4CC[C@]23CN1C [Conessine],fold induction at 50 µM,[1]; [9],1.1
same,fold induction at 50 µM,[2]; [10],1.2
same,fold induction at 50 µM,[3]; [11],1.6
same,fold induction at 50 µM,[4]; [12],1.4
same,fold induction at 50 µM,[5]; [13],1.2
same,fold induction at 50 µM,[6]; [14],1.5
same,fold induction at 50 µM,[7]; [15],1.2
NCCC(=O)NCCc1c[nH]cn1 [Carcinine],fold induction at 50 µM,"[1]; planktonic E. faecium, […], read-out: AK-based Prestwick Library Screening Results, E. faecium (increase in extracellular AK activity)",0.9
same,fold induction at 50 µM,"[2]; planktonic S. aureus, […], read-out: AK-based Prestwick Library Screening Results, S. aureus (increase in extracellular AK activity)",0.7
same,fold induction at 50 µM,"[3]; planktonic E. cloacae, […], read-out: AK-based Prestwick Library Screening Results, E. cloacae (increase in extracellular AK activity)",0.8
same,fold induction at 50 µM,"[4]; planktonic A. baumannii, […], read-out: AK-based Prestwick Library Screening Results, A. baumannii (increase in extracellular AK activity)",0.8
same,fold induction at 50 µM,"[5]; planktonic K. pneumoniae, […], read-out: AK-based Prestwick Library Screening Results, K. pneumoniae (increase in extracellular AK activity)",0.6
same,fold induction at 50 µM,"[6]; planktonic E. coli, […], read-out: AK-based Prestwick Library Screening Results, E. coli (increase in extracellular AK activity)",0.8
same,fold induction at 50 µM,"[7]; planktonic P. aeruginosa, […], read-out: AK-based Prestwick Library Screening Results, P. aeruginosa (increase in extracellular AK activity)",0.8
C/C=C(/C(=C/C)c1ccc(O)cc1)c1ccc(O)cc1 [Dienestrol],fold induction at 50 µM,"[1]; cutoff for positive-scoring molecules 3-fold increase, read-out: AK-based Prestwick Library Screening Results, E. faecium (fold increase in extracellular AK activity)",1.3
same,fold induction at 50 µM,"[2]; cutoff for positive-scoring molecules 3-fold increase, read-out: AK-based Prestwick Library Screening Results, S. aureus (fold increase in extracellular AK activity)",0.4
same,fold induction at 50 µM,"[3]; cutoff for positive-scoring molecules 3-fold increase, read-out: AK-based Prestwick Library Screening Results, E. cloacae (fold increase in extracellular AK activity)",21.9
same,fold induction at 50 µM,"[4]; cutoff for positive-scoring molecules 3-fold increase, read-out: AK-based Prestwick Library Screening Results, A. baumannii (fold increase in extracellular AK activity)",3.2
same,fold induction at 50 µM,"[5]; cutoff for positive-scoring molecules 3-fold increase, read-out: AK-based Prestwick Library Screening Results, K. pneumoniae (fold increase in extracellular AK activity)",0.9
same,fold induction at 50 µM,"[6]; cutoff for positive-scoring molecules 3-fold increase, read-out: AK-based Prestwick Library Screening Results, E. coli (fold increase in extracellular AK activity)",1.1
same,fold induction at 50 µM,"[7]; cutoff for positive-scoring molecules 3-fold increase, read-out: AK-based Prestwick Library Screening Results, P. aeruginosa (fold increase in extracellular AK activity)",1.1
CCCCNc1cc(C(=O)O)cc(S(N)(=O)=O)c1Oc1ccccc1 [Bumetanide],fold induction at 50 µM,[1]; [16],0.9
same,fold induction at 50 µM,[2]; [17],0.7
same,fold induction at 50 µM,[3]; [18],1.3
same,fold induction at 50 µM,[4]; [19],0.8
same,fold induction at 50 µM,[5]; [20],0.7
same,fold induction at 50 µM,[6]; [21],0.9
same,fold induction at 50 µM,[7]; [22],0.8
CC(=O)OCC(=O)[C@@]1(OC(C)=O)[C@@H](C)C[C@H]2[C@@H]3C[C@H](F)C4=CC(=O)C=C[C@]4(C)[C@@]3(F)[C@@H](O)C[C@@]21C [Diflorasone Diacetate],fold induction at 50 µM,[1]; [9],1.1
same,fold induction at 50 µM,[2]; [10],1.1
same,fold induction at 50 µM,[3]; [11],1.4
same,fold induction at 50 µM,[4]; [12],0.9
same,fold induction at 50 µM,[5]; [13],1
same,fold induction at 50 µM,[6]; [14],1.1
same,fold induction at 50 µM,[7]; [15],1
O=c1[nH]cnc2c1ncn2[C@H]1CC[C@@H](CO)O1 [Didanosine],fold induction at 50 µM,[1]; [23],0.9
same,fold induction at 50 µM,[2]; [24],1.2
same,fold induction at 50 µM,[3]; [25],4.2
same,fold induction at 50 µM,[4]; [26],1.5
same,fold induction at 50 µM,[5]; [27],0.9
same,fold induction at 50 µM,"[6]; planktonic E. coli, 384-well, […], read-out: AK-based Prestwick Library Screening Results: E. coli (increase in extracellular AK activity)",4.7
same,fold induction at 50 µM,[7]; [28],1
COc1cc([C@@H]2c3cc4c(cc3[C@H](O)[C@H]3COC(=O)[C@H]23)OCO4)cc(OC)c1OC [Podophyllotoxin],fold induction at 50 µM,"[1]; […], read-out: AK-based Prestwick Library Screening Results, E. faecium (fold increase in extracellular AK activity)",0.9
same,fold induction at 50 µM,"[2]; […], read-out: AK-based Prestwick Library Screening Results, S. aureus (fold increase in extracellular AK activity)",1
same,fold induction at 50 µM,"[3]; […], read-out: AK-based Prestwick Library Screening Results, E. cloacae (fold increase in extracellular AK activity)",1.3
same,fold induction at 50 µM,"[4]; […], read-out: AK-based Prestwick Library Screening Results, A. baumannii (fold increase in extracellular AK activity)",1.2
same,fold induction at 50 µM,"[5]; […], read-out: AK-based Prestwick Library Screening Results, K. pneumoniae (fold increase in extracellular AK activity)",1.2
same,fold induction at 50 µM,"[6]; […], read-out: AK-based Prestwick Library Screening Results, E. coli (fold increase in extracellular AK activity)",1.2
same,fold induction at 50 µM,"[7]; […], read-out: AK-based Prestwick Library Screening Results, P. aeruginosa (fold increase in extracellular AK activity)",1.1
O=C(C1CCCCC1)N1CC(=O)N2CCc3ccccc3C2C1 (stereo not shown) [Praziquantel],fold induction at 50 µM,[1]; [16],1
same,fold induction at 50 µM,[2]; [17],0.8
same,fold induction at 50 µM,[3]; [18],0.7
same,fold induction at 50 µM,[4]; [19],0.7
same,fold induction at 50 µM,[5]; [20],0.6
same,fold induction at 50 µM,[6]; [21],0.9
same,fold induction at 50 µM,[7]; [22],0.6
CCN1CCN(C(=O)N[C@@H](C(=O)N[C@@H]2C(=O)N3C(C(=O)O)=C(CSc4nnnn4C)CS[C@H]23)c2ccc(O)cc2)C(=O)C1=O [Cefoperazone dihydrate],fold induction at 50 µM,[1]; [23],0.9
same,fold induction at 50 µM,[2]; [24],0.7
same,fold induction at 50 µM,[3]; [25],12
same,fold induction at 50 µM,[4]; [26],0.7
same,fold induction at 50 µM,[5]; [27],2.1
same,fold induction at 50 µM,"[6]; planktonic E. coli, 384-well, cutoff for positive-scoring molecules 3-fold increase, read-out: AK-based Prestwick Library Screening Results: E. coli (increase in extracellular AK activity)",16.5
same,fold induction at 50 µM,[7]; [28],5.2
